pIC50, pKi: −log10 of the molar value.
How the values were obtained:
[1] = target: Botulinum neurotoxin type A (Clostridium botulinum, UniProt P0DPI0); assay: Inhibition of Clostridium botulinum neurotoxin A light chain by HPLC-based assay
[2] = target: Botulinum neurotoxin type A (Clostridium botulinum) (UniProt P0DPI0); assay: Inhibition of Clostridium botulinum neurotoxin A light chain at 20 uM by HPLC-based assay
Sequence of Botulinum neurotoxin type A (Clostridium botulinum) (P0DPI0 2-448 limits assumed): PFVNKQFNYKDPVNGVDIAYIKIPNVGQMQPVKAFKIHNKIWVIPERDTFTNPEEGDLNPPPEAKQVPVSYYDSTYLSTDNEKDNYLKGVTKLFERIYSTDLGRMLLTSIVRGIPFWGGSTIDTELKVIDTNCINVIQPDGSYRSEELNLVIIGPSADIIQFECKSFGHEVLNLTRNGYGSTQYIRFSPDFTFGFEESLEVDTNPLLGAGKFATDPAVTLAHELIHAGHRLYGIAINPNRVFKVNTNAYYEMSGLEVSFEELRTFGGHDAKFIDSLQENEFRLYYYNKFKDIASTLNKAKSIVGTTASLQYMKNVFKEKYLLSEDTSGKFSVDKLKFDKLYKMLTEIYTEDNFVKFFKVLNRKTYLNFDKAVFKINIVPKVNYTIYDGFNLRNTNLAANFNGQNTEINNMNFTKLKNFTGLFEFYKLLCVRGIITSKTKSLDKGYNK

Sequence of Botulinum neurotoxin type A (P0DPI0 2-448 limits assumed): as above

`N=C(N)c1ccc(Oc2ccc(-c3cc4ccc(/C(N)=N/CCCNc5ccnc6cc(Cl)ccc56)cc4[nH]3)cc2)cc1` was tested. Which pKi [1] did it give?
Its pKi is 6.22.

What about the inhibition [2] of the same compound?
The inhibition was 95%.

For `Clc1ccc2c(NCCCNCCCNc3ccnc4cc(Cl)ccc34)ccnc2c1`, which inhibition [2] is on record?
The inhibition was 60%.

How did the pIC50 [1] turn out when `N=C(N)c1ccc(Oc2ccc(-c3cc4ccc(C(=N)N)cc4[nH]3)cc2)cc1` was run?
The pIC50 was 5.52.

And the pKi [1]?
The pKi was 5.00.

How did the pKi [1] turn out when `N=C(N)c1ccc2cc(-c3ccc(Oc4ccc(/C(N)=N/CCCNc5ccnc6cc(Cl)ccc56)cc4)cc3)[nH]c2c1` was run?
The pKi was 6.22.

What about the inhibition [2] of the same compound?
Its inhibition is 95%.

From ChEMBL document CHEMBL1156013, “Pharmacophore-guided lead optimization: the rational design of a non-zinc coordinating, sub-micromolar inhibitor of the botulinum neurotoxin serotype a metalloprotease” (Bioorg Med Chem Lett, 2009)
